Results on seven molecules are retold here after ChEMBL document CHEMBL1201862, “PubChem BioAssay data set” (2004).

One test deals with T1, Bcl-2-related protein A1 (Mus musculus, UniProt Q07440).
T1 sequence (Q07440 whole entry): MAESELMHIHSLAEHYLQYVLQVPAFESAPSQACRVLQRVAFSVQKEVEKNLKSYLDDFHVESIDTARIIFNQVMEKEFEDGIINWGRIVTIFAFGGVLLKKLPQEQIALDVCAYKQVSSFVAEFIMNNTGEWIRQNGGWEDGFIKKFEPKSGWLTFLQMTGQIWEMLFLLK
It is filed as functional.

The target of test [1] is T2, Ubiquitin-conjugating enzyme E2 N (Homo sapiens, UniProt P61088).
T2 sequence (P61088 whole entry): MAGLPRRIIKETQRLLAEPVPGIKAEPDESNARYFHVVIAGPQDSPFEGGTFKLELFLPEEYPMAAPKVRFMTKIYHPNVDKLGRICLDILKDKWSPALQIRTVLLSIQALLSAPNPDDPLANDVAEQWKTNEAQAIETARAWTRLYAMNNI
It is filed as functional.

Test [2] addresses T2, Ubiquitin-conjugating enzyme E2 N. It is filed as functional. The source holds these as a separate data set.
Test [3] concerns the target T3, Tyrosine-protein phosphatase non-receptor type 7 (Homo sapiens, UniProt P35236).
T3 sequence (P35236 whole entry): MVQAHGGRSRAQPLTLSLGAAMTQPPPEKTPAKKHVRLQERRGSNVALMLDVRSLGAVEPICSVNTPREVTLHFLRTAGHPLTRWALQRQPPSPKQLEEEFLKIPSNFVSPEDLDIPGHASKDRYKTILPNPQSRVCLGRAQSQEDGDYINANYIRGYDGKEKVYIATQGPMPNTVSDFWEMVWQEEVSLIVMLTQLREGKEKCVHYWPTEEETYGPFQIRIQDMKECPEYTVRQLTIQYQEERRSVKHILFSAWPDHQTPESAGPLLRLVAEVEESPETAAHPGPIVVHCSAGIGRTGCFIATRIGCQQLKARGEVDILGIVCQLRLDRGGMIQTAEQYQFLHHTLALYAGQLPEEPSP
The format is functional.

Test [4] deals with T4, Tyrosine-protein phosphatase non-receptor type 22 (Homo sapiens, UniProt Q9Y2R2).
T4 sequence (Q9Y2R2 whole entry): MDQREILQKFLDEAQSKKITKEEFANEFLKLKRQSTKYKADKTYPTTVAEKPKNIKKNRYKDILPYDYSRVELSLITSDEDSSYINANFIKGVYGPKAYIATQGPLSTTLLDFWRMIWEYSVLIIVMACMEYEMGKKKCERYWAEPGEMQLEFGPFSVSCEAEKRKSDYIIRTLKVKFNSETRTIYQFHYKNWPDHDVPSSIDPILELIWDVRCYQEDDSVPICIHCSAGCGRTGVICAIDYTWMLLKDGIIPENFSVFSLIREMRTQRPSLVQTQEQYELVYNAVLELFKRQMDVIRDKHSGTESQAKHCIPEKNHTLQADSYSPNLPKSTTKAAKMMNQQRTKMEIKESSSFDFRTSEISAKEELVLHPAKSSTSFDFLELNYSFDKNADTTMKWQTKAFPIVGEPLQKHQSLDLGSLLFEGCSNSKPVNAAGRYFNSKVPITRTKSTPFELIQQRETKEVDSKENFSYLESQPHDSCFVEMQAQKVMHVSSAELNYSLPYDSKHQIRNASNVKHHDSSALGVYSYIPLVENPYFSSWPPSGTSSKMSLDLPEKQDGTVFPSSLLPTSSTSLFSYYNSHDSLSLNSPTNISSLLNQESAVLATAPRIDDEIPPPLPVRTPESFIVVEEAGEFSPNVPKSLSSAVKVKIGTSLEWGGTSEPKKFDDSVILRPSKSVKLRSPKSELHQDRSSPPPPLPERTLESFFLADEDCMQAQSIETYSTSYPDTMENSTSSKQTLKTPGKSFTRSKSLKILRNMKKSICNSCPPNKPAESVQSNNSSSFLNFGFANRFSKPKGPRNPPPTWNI
It is filed as functional.

In test [5] the target is T4, Tyrosine-protein phosphatase non-receptor type 22. The format is functional. This is another data set of the same source.
In test [6] the target is T5, SUMO-activating enzyme (Homo sapiens, UniProt Q9UBT2). Kind of test: blockers of UBC9-mediated SUMO conjugation – biochemical, AlphaScreen, SUMOylation inhibitor project, confirmation (AID 2018). The format is functional.
For test [7], the target named is T5, SUMO-activating enzyme. Put plainly: blockers of SAE1/SAE2–UBC9 SUMO transfer – biochemical, HTRF, uHTS, primary screen (AID 2006). The format is protein-complex assay.
The nature of another test: cells. It is filed as functional.
In test [8] the target is T6, Replicative DNA helicase DnaB (Mycobacterium tuberculosis, UniProt P9WMR3).
T6 sequence (P9WMR3 whole entry): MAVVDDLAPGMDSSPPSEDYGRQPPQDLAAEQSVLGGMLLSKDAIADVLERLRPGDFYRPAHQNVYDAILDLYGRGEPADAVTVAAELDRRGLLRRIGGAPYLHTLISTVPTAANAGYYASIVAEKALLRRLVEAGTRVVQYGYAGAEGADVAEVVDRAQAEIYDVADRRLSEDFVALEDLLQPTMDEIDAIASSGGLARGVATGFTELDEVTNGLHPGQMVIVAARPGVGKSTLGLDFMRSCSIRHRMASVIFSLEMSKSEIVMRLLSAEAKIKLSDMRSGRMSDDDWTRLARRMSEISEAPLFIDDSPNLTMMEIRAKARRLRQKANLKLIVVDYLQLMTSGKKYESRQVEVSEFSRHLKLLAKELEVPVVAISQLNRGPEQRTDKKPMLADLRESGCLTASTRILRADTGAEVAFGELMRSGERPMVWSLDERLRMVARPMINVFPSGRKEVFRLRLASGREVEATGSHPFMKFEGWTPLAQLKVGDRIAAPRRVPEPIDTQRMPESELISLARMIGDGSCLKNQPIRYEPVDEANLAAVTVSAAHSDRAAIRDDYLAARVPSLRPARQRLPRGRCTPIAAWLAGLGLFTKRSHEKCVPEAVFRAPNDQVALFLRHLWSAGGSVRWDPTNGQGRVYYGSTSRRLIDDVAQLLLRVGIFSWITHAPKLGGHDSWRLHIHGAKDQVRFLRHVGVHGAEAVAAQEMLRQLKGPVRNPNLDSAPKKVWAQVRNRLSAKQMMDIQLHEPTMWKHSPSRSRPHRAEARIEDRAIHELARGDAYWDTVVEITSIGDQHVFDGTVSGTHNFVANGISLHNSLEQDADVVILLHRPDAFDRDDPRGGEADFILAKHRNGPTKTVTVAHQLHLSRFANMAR
Kind of test: DnaB intein splicing inhibitors, dose response, biochemical, cell-free fluorescence (AID 449749). The format is functional.

Another test deals with T7, Protein RecA (Mycobacterium tuberculosis, UniProt P9WHJ3).
T7 sequence (P9WHJ3 whole entry): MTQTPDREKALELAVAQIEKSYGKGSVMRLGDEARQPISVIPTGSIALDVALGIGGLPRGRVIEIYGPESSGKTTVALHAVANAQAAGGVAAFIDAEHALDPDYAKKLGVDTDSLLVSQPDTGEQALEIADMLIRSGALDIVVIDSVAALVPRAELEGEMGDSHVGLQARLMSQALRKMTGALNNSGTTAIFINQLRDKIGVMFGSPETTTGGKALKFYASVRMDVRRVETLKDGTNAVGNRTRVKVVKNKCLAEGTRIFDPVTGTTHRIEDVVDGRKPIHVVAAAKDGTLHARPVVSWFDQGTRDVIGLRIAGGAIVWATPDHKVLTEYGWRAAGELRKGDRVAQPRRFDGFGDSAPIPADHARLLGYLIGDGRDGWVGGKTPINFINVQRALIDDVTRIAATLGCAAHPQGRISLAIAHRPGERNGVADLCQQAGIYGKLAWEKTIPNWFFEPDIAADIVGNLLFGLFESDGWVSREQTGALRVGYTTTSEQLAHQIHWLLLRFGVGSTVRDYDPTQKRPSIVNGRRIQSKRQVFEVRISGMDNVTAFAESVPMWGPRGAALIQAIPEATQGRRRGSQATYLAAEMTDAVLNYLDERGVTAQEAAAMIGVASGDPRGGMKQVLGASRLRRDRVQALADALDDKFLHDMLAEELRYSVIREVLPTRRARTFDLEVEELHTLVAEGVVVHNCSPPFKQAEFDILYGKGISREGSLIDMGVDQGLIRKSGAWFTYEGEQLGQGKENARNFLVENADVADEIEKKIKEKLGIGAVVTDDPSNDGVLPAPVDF
Put plainly: Fluorescence Cell-Free Homogeneous Dose Retest to Identify Inhibitors of RecA-Intein Splicing Activity. [Related pubchem assays (depositor defined):AID2097, AID2223, AID489010, AID492950]. It is filed as functional.

For a further test, the target named is Genome polyprotein (dengue virus type 2, UniProt P29990). Kind of test: flavivirus cap methylation enzyme inhibition – biochemical, confirmation dose response, primary screen (AID 588689). It is filed as functional.
For test [9], the target named is T8, Rac GTPase-activating protein 1 (Homo sapiens, UniProt Q9H0H5).
T8 sequence (Q9H0H5 whole entry): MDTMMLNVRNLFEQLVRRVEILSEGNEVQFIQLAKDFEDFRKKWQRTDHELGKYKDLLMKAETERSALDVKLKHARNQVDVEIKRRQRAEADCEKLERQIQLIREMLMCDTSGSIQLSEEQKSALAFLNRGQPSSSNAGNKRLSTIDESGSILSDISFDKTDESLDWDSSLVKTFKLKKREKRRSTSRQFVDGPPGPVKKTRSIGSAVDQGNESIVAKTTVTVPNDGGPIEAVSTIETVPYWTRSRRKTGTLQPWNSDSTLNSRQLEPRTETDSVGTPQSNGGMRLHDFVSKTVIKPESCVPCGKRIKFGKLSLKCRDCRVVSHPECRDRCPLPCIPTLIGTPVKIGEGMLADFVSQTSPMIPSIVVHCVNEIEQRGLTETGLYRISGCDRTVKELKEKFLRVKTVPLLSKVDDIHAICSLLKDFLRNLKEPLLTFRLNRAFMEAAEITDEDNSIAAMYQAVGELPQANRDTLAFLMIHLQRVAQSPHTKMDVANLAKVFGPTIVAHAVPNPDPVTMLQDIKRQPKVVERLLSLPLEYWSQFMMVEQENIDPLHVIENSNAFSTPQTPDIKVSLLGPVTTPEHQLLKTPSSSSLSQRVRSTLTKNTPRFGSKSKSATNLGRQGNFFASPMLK
Put plainly: blockers of MgcRacGAP-driven Rac1 GTP hydrolysis – biochemical, ADP Hunter fluorescence, primary and confirmatory, confirmation (AID 624330). The format is functional.

In test [10] the target is T9, Microphthalmia-associated transcription factor (Homo sapiens, UniProt O75030).
T9 sequence (O75030 whole entry): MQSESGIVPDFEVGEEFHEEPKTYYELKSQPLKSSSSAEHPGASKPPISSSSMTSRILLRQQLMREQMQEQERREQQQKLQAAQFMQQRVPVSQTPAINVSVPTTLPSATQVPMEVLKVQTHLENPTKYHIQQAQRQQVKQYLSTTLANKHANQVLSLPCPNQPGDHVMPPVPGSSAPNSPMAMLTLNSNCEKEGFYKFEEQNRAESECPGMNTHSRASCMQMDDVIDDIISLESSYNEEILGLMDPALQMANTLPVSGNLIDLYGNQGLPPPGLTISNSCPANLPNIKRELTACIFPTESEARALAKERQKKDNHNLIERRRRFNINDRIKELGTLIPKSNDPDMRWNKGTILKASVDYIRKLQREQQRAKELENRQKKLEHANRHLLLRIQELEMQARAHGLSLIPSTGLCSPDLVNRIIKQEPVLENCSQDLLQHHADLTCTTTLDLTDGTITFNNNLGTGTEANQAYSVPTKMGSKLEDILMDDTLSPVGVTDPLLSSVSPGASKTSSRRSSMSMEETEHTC
Put plainly: reducers of TRPM1 reporter luminescence, concentration series – cell-based, SK-MEL-5, cherry-picked, set 3, MITF inhibitor project, dose response (AID 493073).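 Also: SK-MEL-5 melanoma cells with luciferase driven by the MITF target TRPM1 promoter.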 It is filed as functional.

The subject of a further test is A-375. Kind of test: MITF: Counter assay: A375 proliferation Measured in Cell-Based System Using Plate Reader - 2084-03_Inhibitor_Dose_DryPowder_Activity. [Related pubchem assays (depositor defined):AID488944]. It is filed as functional. The note with it: Homo sapiens.
Test [11] concerns the target Glucose-6-phosphate 1-dehydrogenase (Homo sapiens, UniProt P11413). Kind of test: inhibition of Homo sapiens G6PD, dose series – biochemical, fluorescence, selectivity assay for P. falciparum G6PD inhibitor project, dose response (AID 504792). It is filed as functional.

Calls of active or inactive are those of the source.

T5 sequence (Q9UBE0 whole entry): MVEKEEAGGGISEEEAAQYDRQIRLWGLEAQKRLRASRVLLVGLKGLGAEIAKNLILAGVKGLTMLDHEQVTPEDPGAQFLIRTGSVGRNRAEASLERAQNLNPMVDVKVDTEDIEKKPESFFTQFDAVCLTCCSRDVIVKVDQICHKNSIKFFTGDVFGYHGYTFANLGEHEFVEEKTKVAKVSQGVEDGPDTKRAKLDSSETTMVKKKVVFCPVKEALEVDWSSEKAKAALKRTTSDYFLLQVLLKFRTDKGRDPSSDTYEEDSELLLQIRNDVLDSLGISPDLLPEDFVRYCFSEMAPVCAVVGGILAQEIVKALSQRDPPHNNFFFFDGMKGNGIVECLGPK
T5 sequence (Q9UBT2 whole entry): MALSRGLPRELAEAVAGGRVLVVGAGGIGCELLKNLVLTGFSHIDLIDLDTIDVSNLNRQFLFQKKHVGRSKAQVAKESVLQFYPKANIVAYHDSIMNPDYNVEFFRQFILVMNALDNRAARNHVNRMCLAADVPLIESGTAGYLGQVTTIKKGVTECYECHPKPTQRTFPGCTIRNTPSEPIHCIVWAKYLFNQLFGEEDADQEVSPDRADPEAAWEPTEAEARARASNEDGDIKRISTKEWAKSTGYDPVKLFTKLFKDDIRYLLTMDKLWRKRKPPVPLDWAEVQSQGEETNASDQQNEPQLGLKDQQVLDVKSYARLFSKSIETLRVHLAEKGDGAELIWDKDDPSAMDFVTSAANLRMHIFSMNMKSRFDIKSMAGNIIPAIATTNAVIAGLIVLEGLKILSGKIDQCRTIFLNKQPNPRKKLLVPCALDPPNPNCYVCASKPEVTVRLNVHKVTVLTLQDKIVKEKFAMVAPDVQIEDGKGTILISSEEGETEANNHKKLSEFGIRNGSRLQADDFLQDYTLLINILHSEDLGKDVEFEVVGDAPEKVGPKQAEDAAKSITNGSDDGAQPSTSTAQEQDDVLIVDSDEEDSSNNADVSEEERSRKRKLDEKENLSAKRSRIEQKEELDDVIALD
Sequence of Glucose-6-phosphate 1-dehydrogenase (P11413 whole entry): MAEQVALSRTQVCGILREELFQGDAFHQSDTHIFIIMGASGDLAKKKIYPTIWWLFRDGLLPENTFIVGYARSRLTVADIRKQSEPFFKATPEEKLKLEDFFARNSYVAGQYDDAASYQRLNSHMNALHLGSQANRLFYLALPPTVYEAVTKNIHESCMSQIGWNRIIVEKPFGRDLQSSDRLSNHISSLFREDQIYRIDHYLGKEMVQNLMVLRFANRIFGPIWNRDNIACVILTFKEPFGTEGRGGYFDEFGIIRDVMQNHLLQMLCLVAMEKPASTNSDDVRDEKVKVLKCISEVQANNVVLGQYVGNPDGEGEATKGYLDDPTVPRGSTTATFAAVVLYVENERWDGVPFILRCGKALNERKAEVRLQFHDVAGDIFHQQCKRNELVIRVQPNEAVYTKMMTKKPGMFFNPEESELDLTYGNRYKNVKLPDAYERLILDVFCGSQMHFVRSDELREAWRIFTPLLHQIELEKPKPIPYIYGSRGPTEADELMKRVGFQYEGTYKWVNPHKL
Sequence of Genome polyprotein (P29990 2492-3391 limits assumed): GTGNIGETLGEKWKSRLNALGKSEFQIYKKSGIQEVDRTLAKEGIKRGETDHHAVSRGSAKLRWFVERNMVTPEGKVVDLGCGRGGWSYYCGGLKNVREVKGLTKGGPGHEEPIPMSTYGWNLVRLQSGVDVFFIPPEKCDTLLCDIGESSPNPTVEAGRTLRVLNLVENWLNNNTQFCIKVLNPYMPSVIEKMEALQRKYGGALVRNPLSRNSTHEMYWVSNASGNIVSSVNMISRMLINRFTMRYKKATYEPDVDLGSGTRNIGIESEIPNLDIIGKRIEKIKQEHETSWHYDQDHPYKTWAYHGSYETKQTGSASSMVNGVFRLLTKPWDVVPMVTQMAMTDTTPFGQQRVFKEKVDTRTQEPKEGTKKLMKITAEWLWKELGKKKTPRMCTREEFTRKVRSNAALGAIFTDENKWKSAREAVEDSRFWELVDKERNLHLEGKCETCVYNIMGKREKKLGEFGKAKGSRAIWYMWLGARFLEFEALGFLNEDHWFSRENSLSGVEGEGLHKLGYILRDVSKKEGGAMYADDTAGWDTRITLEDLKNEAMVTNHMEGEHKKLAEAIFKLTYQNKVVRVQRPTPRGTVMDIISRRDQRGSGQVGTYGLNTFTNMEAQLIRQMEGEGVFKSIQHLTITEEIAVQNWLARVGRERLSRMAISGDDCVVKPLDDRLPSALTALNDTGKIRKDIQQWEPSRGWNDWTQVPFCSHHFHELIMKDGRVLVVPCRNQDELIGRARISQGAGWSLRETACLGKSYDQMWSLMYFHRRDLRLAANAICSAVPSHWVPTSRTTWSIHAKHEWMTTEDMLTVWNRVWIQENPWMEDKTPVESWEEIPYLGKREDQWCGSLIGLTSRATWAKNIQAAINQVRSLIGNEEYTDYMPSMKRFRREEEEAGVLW

What is called IC50 is the point on the concentration scale where inhibition reaches its midpoint. Consider `O=C1c2cccc3cccc(c23)N1Cc1cccc(F)c1`, for which the IC50 was > 20 µM (inactive) at Bcl-2-related protein A1, 16.6 µM (active) in test [1] and 6.16 µM (active) in test [2].

Regarding `CCOc1ccccc1NC(=O)CSc1nnc(Cc2cccn2C)n1-c1ccc(F)cc1`, the IC50 in test [3], in [4] and in [5] was > 79.4 µM (inactive) in each case.

For orientation: AC50 means the concentration at which the activity in the assay is half-maximal. In general, EC50 refers to the midpoint of the concentration-response curve. As to `CC1=NN(c2ccc(C(=O)O)cc2)C(=O)/C1=C\c1ccc(OC(=O)c2cccs2)cc1`, the IC50 on SUMO-activating enzyme [6] was 7.86 µM (active); at SUMO-activating enzyme [7], 57.7 µM (active); in “cells” it was 15.1 µM (active); at Genome polyprotein, 15.6 µM (active); in [9], 185 µM (active). Also, in test [8], the AC50 is 2.08 µM (active). On Protein RecA, the EC50 was 1.9 µM (active).

Regarding `CN(C)c1ccc(/C=C(\C#N)c2ccccn2)cc1`, the AC50 in [10] is 6.32 µM (active); in the test with A-375 it was 45.2 µM (active).

For `CCCCn1c(=O)[nH]c(=O)c2c1nc(-c1ccc(-c3ccc(F)cc3)o1)n2C`, the IC50 on SUMO-activating enzyme [6] and at SUMO-activating enzyme [7] was > 100 µM (inactive) throughout.

As for `N#Cc1ccc(N=c2ssnc2Cl)cc1`, the IC50 in test [11] was 48.3 µM (inactive).

As for `Cc1nn(-c2ccc(Cl)cc2)c(O)c1C(c1cccc(O)c1)c1c(C)[nH]n(-c2ccc(Cl)cc2)c1=O` (configuration not stated), the half-maximal inhibitory concentration (IC50) on SUMO-activating enzyme [6] is 4.08 µM (active); on SUMO-activating enzyme [7] it was 47.8 µM (active). Also, the concentration at half-maximal activity (AC50) in test [8] is 1.36 µM (active). For the same molecule, the half-maximal effective concentration (EC50) at Protein RecA is 0.897 µM (active).
